# Assay: Serum protein binding
# Assay type: in vitro ADME
# Conditions: human, humans
# Description: Serum concentrations with Verdinexor have been previously established in in vivo models of influenza in both mice and ferrets. In mice receiving 10mg/kg and ferrets receiving 5mg/kg, max plasma concentration of verdinexor was approximately 1200 (ng/mL) however, the half life in mice was extended (6 hours) as compared to that of ferrets (2 hours). Serum protein binding of verdinexor in humans is 98.4%. […] A Phase 1, Randomized, Double-Blind, Placebo-Controlled, Sequential, Dose-Escalating Trial to Evaluate the Safety and Tolerability of Oral Verdinexor (KPT-335) in Healthy Adult Subjects was conducted in Nucleus Network, Melbourne, Victoria, Australia [ClinicalTrials.gov: NCT02431364]. No study results are currently posted for this study. Furthermore, a clinical study was submitted to the USA FDA on IND#122718. This phase 1a, Randomized, Double-Blind, Placebo-Controlled, Sequential, Dose-Escalating Trial of Single and Multi-Dose oral verdinexor (KPT-335) to Evaluate the Safety and Tolerability in Healthy Elderly Volunteers is yet to be initiated and recruit subjects.
structure (smiles),measurement,value
"O=C(C=Cn1cnc(-c2cc(C(F)(F)F)cc(C(F)(F)F)c2)n1)NNc1ccccn1 (stereo in doubt) [verdinexor, (E)-3-[3-[3,5-bis(trifluoromethyl)phenyl]-1,2,4-triazol-1-yl]-N'-pyridin-2-ylprop-2-enehydrazide]",fraction unbound,0.016

# — article PMC6192554, “In vitro toxicity and efficacy of verdinexor, an exportin 1 inhibitor, on opportunistic viruses affecting immunocompromised individuals” (PLoS ONE, 2018)
